Test results published in PMC10137179, “Assessment of Covalently Binding Warhead Compounds in the Validation of the Cytomegalovirus Nuclear Egress Complex as an Antiviral Target” (Cells, 2023).
Read-outs that look alike come from different tables or passages of the source.

What was measured:
HCMV AD169-GFP = assay: microbe, parasite or virus in culture; assay type: cell-based, human cytomegalovirus (HCMV); settings: for EC50: Human betaherpesvirus 5, AD169, 168 h; for SI: selectivity index CC50/EC50, AD169-GFP
Method: (§1) Cytotoxicity of the analyzed compounds was determined by the Neutral Red dye uptake assay. A total of 1.35 × 10^5 HFFs per well were seeded in 96-well plates 1 d prior to analysis, cultivated overnight until cells were confluent and then incubated with compounds for 7 days. The assay was performed as described previously using 40 μg/mL Neutral Red (Sigma Aldrich). The quantity of dye incorporation was determined using the Victor X4 microplate reader (PerkinElmer, Waltham, MA, USA) by fluorescence measurement at 560/630 nm for excitation/emission, respectively. To assess antiviral activity of compounds, HFFs seeded in 96-well plates (1.35 × 10^5 HFFs per well) were infected with HCMV AD169-GFP or TB40-IE2-YFP to reach 25–50% infected cells at 7 days post-infection (d p.i.). After incubation with the infectious inoculum for 1.5 h at 37 °C, compounds were added in serial dilutions. At 7 d p.i., cells were fixed for 10 min at room temperature using 10% formalin. Finally, cells were washed once with PBS followed by automated fluorescence quantitation.
Seeking for a novel group of potential antiviral agents, small molecules with covalent protein-binding activity were investigated. These small molecules, originally developed as kinase inhibitors, carry a so-called warhead moiety as an important functional group, such as the prototype afatinib (Figure 1A, red circle). In this study, a series of newly generated warhead compounds (most of which are the property of B.K./Lead Discovery Center, Dortmund, Germany) were used for an evaluation of putative antiviral and core NEC-inhibitory properties. In a first step, the antiviral activity of warheads was analyzed against HCMV TB40-IE2-YFP (Figure 1B) and AD169-GFP (Figure 1C). To this end, HFFs were infected with either of the two viral strains before the GFP or YFP reporter signals were measured at 7 d p.i. (in parallel, putative compound cytotoxicity was determined by Neutral Red assay). The HCMVs AD169-GFP and TB40-IE2-YFP, based on BAC-derived recombinants of the laboratory strains AD169 and TB40, respectively, were both propagated on HFFs, and the produced stocks were then used as two reporter viruses for the assessement of antiviral drug activity. While strain AD169 is mainly restricted in its tropism to fibroblasts, TB40 tropism can be extended to fibroblasts and epithelial and endothelial cells. Here, the use of two strains was intended to illustrate the assumption that antiviral activity of these warhead compounds may be directed to conserved viral target proteins, thus pointing out a minor impact of strains.
(A) Chemical structure of a clinically approved prototype of covalently binding warhead inhibitors, […], afatinib/Gilotrif®. The red circle identifies a functionally active α-, β-unsaturated carbonyl group. (B) At 7 d p.i., compounds were analyzed for their cytotoxicity (orange) and antiviral activity (blue) during HCMV infection, using TB40-IE2-YFP as a reporter virus. Cell viability was assessed through Neutral Red staining of uninfected cells. Measurements were performed in quadruplicate (YFP fluorometry) or triplicate (Neutral Red assay), and standard deviations of mean values are given; EC50, CC50 and SI values are indicated accordingly. (C) In a parallel series of analyses, HCMV AD169-GFP was used as another reporter virus representing a second viral strain. […] HCMV AD169-GFP-infected HFFs were treated with 0.1 µM to 50 µM of the compounds (in parallel Neutral Red assay, 0.1 µM to 100 µM), before the signal assessments were performed at 7 d p.i.

in vitro = assay type: cell-based, human; settings: human
Method: as §1

[1] = target: T1, pUL50–pUL53 interaction (LgBiT::UL53-Flag + SmBiT::UL50-HA) (Human cytomegalovirus, UniProt P16791); assay type: cell-based; settings: 293T cells, 5×, 1× or 0.2× anti-HCMV EC50 levels, full-length LgBiT::UL53-Flag
T1 construct: expressed in transfected cells; host or cells: 293T
T1 sequence (P16791 whole entry): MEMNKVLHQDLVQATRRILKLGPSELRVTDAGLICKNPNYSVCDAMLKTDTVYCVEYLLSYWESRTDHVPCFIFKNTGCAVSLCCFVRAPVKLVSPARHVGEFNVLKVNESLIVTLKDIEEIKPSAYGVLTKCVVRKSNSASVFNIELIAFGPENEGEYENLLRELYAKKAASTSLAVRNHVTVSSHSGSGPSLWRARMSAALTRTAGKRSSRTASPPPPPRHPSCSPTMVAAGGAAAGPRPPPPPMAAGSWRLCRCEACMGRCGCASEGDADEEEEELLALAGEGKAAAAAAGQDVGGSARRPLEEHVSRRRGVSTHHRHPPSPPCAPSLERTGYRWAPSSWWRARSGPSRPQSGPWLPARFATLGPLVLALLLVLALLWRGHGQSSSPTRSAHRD

[2] = target: T2, pUL50–pUL53 interaction (LgBiT::UL53(1–87)-Flag + SmBiT::UL50-HA) (Human cytomegalovirus, UniProt P16791); assay type: cell-based; settings: 293T cells, 5×, 1× or 0.2× anti-HCMV EC50 levels, truncated LgBiT::UL53(1–87)-Flag
T2 construct: expressed in transfected cells; host or cells: 293T
T2 sequence (P16791 whole entry, the tested form may be a part): as the sequence (P16791 whole entry) above

[3] = AD169-GFP-infected HFFs, 7 d p.i., 0.1 µM to 50 µM
[4] = clinically relevant warheads, 0.1 µM to 50 µM, AD169-GFP-infected HFFs, 7 d p.i.

Compound | antiviral activity (in words) (HCMV AD169-GFP; [3]) | EC50 (HCMV AD169-GFP; [4]) [µM] | CC50 at 7 days (in vitro) [µM] | inhibitory effect on NanoBiT interaction signal (in words) [1] | inhibitory effect on NanoBiT interaction signal (in words) [2] | EC50 (HCMV AD169-GFP) [µM] | SI (HCMV AD169-GFP; clinically relevant warheads) | CC50 at 7 days (in vitro; clinically relevant warheads, 0.1 µM to 100 µM, Neutral Red, uninfected HFFs, 7 d, read-out: CC50) [µM] | CC50 at 7 days (in vitro; CC50) [µM]
COC(=O)[C@]12CCC(C)(C)C[C@H]1[C@H]1C(=O)C=C3[C@@]4(C)C=C(C#N)C(=O)C(C)(C)[C@@H]4CC[C@@]3(C)[C@]1(C)CC2 [CDDO-Me, 2-cyano-3,12-dioxooleana-1,9(11)-dien-28-oic acid methyl ester] | no notable antiviral activity | < 0.4 | > 0.8 | – | – | – | – | – | –
C=C1C(=O)O[C@@H]2C[C@@]3(C)CCC[C@H](C)C3=C[C@H]12 [alantolactone] | – | 3.2 ± 1.3 | 23 ± 5 | very minor or no effects | very minor or no effects | – | – | – | –
COC[C@H]1OC(=O)c2coc3c2[C@@]1(C)C1=C(C3=O)[C@@H]2CCC(=O)[C@@]2(C)C[C@H]1OC(C)=O [wortmannin] | no notable antiviral activity | – | > 100 | – | – | > 50 | inactive | – | –
C=CC(=O)Nc1cc(Nc2nccc(-c3cn(C)c4ccccc34)n2)c(OC)cc1N(C)CCN(C)C [osimeritinib] | – | 1 ± 0.8 | – | very minor or no effects | very minor or no effects | – | – | 23 | –
C=CC(=O)N1CCN(c2nc(=O)n(-c3c(C)ccnc3C(C)C)c3nc(-c4c(O)cccc4F)c(F)cc23)[C@@H](C)C1 [sotorasib] | no notable antiviral activity | > 50 | – | – | – | – | inactive | – | 95 ± 12
C=C1C(=O)O[C@H]2[C@H]1CC/C(C)=C/CC[C@@]1(C)O[C@@H]21 [parthenolide] | no notable antiviral activity | 6.7 ± 3.4 | – | – | – | – | – | – | 9 ± 0.4
